Reference: patent publication US20230117859A1, “INHALED XENON THERAPY IN NEURODEGENERATIVE DISEASE” (The Brigham and Women`s Hospital, Inc., priority 2020, published 2023)

Assays:
[1] = system: Apoe in CD68+ phagosomes in APP/PS1 mice; test: Apoe engulfed in CD68+ phagosomes in APP/PS1 mice; type: in vivo, mouse
Procedure: APP-PS1 and WT mice were exposed to Xenon vs. normal air in vivo for 8 weeks. After that, the mice were sacrificed and perfused with Hanks' Balanced Salt solution (HBSS). The mouse brain was separated, and the right hemisphere was fixed in 4% PFA. After 24 hours the hemisphere was then transferred to a 30% sucrose solution for 48 hours. Brains were later frozen in Tissue-TeK O.C.T. and stored at −80 until ready to be cut. […] sagittal brain sections were cut with a cryostat and kept free floating in cryoprotectant solution. On the first day of staining, free floating brain sections were washed twice with phosphate buffered saline (PBS) and then incubated for one hour in blocking buffer (PBS, 0.1% Triton, 1% Bovine Serum Albumin, 10% Normal Horse Serum). Afterwards, the sections were incubated with primary antibody [Mouse-anti-Apoe (1:1000) and Rat-anti-CD68 (1:200)] in pre-blocking buffer (PBS, 0.1% Triton, 1% Bovine Serum Albumin, 5% Normal Horse Serum) on a shaker overnight at 4° C. The following day, the sections were washed three times with PBS. […] For quantification of the percentage of Apoe engulfed in CD68^+ phagosomes, acquired images were imported to Fiji software (ImageJ). […] The overlap of the staining/CD68+ staining was quantified in both groups. […]

[2] = system: platelets and red blood cells, Lymphocyte-like Jurkat cells, H9C2 and U937 cells; test: Anti-apoptotic effect of Xe-gas on a variety of biological cells; type: cell-based, human
Description: (§1) FIGS. 7A-D. Xe-treatment prevents apoptosis in variety of cells. A. Viability of lymphocyte-like Jurkat cell after 1 day storage. […] C. Viability of monocyte-like U-937 cells after 1 day storage. D. Viability of monocyte-like U-937 cells after 14 days storage.
(§2) It is known that Xe treatment protects neurons from apoptosis by reducing intracellular calcium, protecting mitochondrial membranes, and attenuating cell damage caused by reactive oxygen species (ROS)^28,29.

U-937 cells = test: Apoptosis in stored U-937 cells; type: cell-based, human; conditions: xenon vs no gas
Description: as §1, §2

[3] = system: 6E10+ Abeta plaques and Clec7a+ MGnD microglia in APP/PS1 mice; test: Immunostaining of Ab load (6E10) and Clec7a+ MGnD microglia in cortex of APP/PS1 mice; type: in vivo, mouse
Procedure: APP-PS1 and WT mice were sacrificed and perfused with Hanks' Balanced Salt solution (HBSS). The mouse brains were separated, and the right hemispheres fixed in 4% PFA. After 24 hours the hemispheres were then transferred to a 30% sucrose solution for 48 hours. Brains were later frozen in Tissue-TeK O.C.T. and stored at −80 until ready to be cut. […] sagittal brain sections were cut with a cryostat and kept free floating in cryoprotectant solution. On the first day of staining, free floating brain sections were washed twice with phosphate buffered saline (PBS) and then incubated for one hour in blocking buffer (PBS, 0.1% Triton, 1% Bovine Serum Albumin, 10% Normal Horse Serum). Afterwards, the sections were incubated with primary antibody [Mouse-anti-Abeta Ab (1:1000, Biolegend, 6E10) and Rat-anti-Clec7a (1:300, Invivogen, mabg-mdect)] in pre-blocking buffer (PBS, 0.1% Triton, 1% Bovine Serum Albumin, 5% Normal Horse Serum) on a shaker overnight at 4° C. The following day, the sections were washed three times with PBS. Secondary antibodies (Donkey-anti-mouse-Cy3 (1:800, JIR, 715-165-150) and Goat-anti-Rat-647 (1:800, Invitrogen, A-21247)) in pre-blocking buffer were added to the sections for 1 hour at room temperature. After washing the sections 3 times with PBS, they were moved onto glass slides and covered with a glass coverslip and DAPI. Then images were taken by Leica DMi8 microscope. 4-6 images of prefrontal cortex with 10× magnification were taken per brain section (3 brain sections were stained per mouse, n=3-5).
For quantification of MGnD and Ab load, acquired images were imported to Fiji software (ImageJ). Then the data channels were separated. Gaussian filtering was used to remove noise. Next, the MGnD and plaques were shown using automatic thresholding methods in Fiji (with “Triangle” thresholding setting for MGnD and “Otsu” for Ab load 6E10). Finally, the percentage of the MGnD and Ab plaques over the cortical area was calculated and averaged, indicating the distribution of MGnD and Ab plaques in the prefrontal cortex.

EAE in C57BL6 animals = test: Experimental autoimmune encephalomyelitis (EAE) model; type: in vivo, mouse
Procedure: FIGS. 9A-E. Xenon treatments delayed EAE symptoms. A. Scheme representative of experimental design used. C57BL6 animals were immunized with 150 ug of MOG diluted v/v in CFA followed by two doses of B. Pertussis toxin (200 ng) applied during immunization and 48 hours later. The treatment with xenon consisted of a 40 minutes exposure twice a week starting on day 0. After clinical evaluation the animals were euthanized at the peak of the disease and the frequency of inflammatory cells evaluated by flow cytometry and IHC. B. Score curve from clinical signs. C. Evaluation of microglia cells from spinal cord by flow cytometry. Gate based on population CD45+, CD11b+, Ly6C−, Clec12a−. D. T Helper cells evaluation by flow cytometry. E. Immunofluorescence of spinal cord from animals on day 17th. At top the control animals and at the bottom the animals treated with Xenon. The tissue was stained for Tmem119, Clec7a and MBP, quantification measured by the Fiji ImageJ software. Statistical analysis: T-test. In order to evaluate the effects of Xenon as a possible candidate for Multiple Sclerosis (MS) treatment, we development a new protocol of exposition. We used the experimental autoimmune encephalomyelitis (EAE) model that mimics part of the mechanisms presents in MS. The induction of this model is due to the combination of the oligodendrocyte myelin (MOG) diluted in complete Freund's adjuvant (CFA) to break immunological tolerance and initiate the development of autoimmunity in these animals. In association we give two 200 ng doses of Bordetella Pertussis toxin that helps in increasing the permeability of the blood-brain barrier allowing the entry of immune cells to the spinal cord. The treatment with xenon was divided into 5 exposures of 40 minutes divided twice a week in the concentration of 3 PSI of xenon with 1 PSI of oxygen with the oxygen and CO2 concentration constantly measured. This treatment took place from day 0 to day 15 after immunization, with the animals' euthanasia on day 17 (See FIG. 9A). The clinical evaluation started on day 8 with the clinical signs being classified into: 0 no disease, 1—limp tail, 2—weak/partially paralyzed hind legs, 3—completely paralyzed hind legs, 4—complete hind and partial front leg paralysis, 5—complete paralysis/death.

[4] = system: cortical neurons and basal forebrain cholinergic neurons; conditions: mild excitotoxic stress by continued exposure to PDC; cited from earlier work
[5] = system: FCRLS+ microglia in APP/PS1 mice; test: RNAseq of FCRLS+ microglia from Xe-treated APP/PS1 mice; type: in vivo, mouse
Description: Based on recent findings that danger signals (dead neurons, neuritic axons and Ab peptides) alter functional phenotype of microglia from the homeostatic (M0) to neurodegenerative (MGnD) phenotype in AD, we hypothesized that Xe-gas treatment has a protective immunomodulatory role to restore homeostatic ‘sensome’ microglial functions in neurodegenerative diseases. To address whether Xe-treatment will restore functional microglia and suppress AD-like pathology in APP-PS1^30 mice, we started treatment with Xe at 2 months of age (at the onset of amyloid deposition—early stage) for 8 weeks (once a week for 40 minutes). Of note, these mice start to develop plaques at 6 weeks of age with saturation around 8 months of age. To treat mice with xenon gas we constructed a special chamber which can control supply of Xe and atmospheric gas (FIG. 3A). The closed-circuit system pumps recirculated gas through soda-lime to absorb CO2. CO2 and O2 concentrations were continuously monitored. The gas mixture was premixed in the outside container with excessive pressure. That lead to approximately 70% Xe and 20% 02 in the chamber. When 02 concentration reduced, additional gas mixture was supplied from the mixing container. The system was optimized to treat simultaneously up to 6 mice. Two types of mice were used: APP/PS1 mice and Wild Type mice as a control. The groups contained both males and females who were housed and treated separately. In each group we subjected portion of the mice to Xe treatment, and another portion was used as control by treatment with atmospheric air (FIG. 3B). We isolated FCRLS^+ microglia by FACS and performed RNAseq analysis.

[6] = system: dN-phagocytic microglia (MG-dNΦ); test: Acute neurodegeneration mouse model (dead neurons injection), RNA-Sequencing of microglia; type: in vivo
Procedure: We developed a new acute neurodegeneration mouse model to induce neurodegenerative MGnD-microglia^36. In brief, primary neurons (d7-d10) were typically cultured one week after initiation of culture. Neurons were removed from the surface of the plate by multiple washed with PBS. The neurons were then incubated under UV light (302 nm) at an intensity of 6315 W for 15 minutes to induce apoptosis. After this step the neurons were kept on ice. The cells were collected, spun down via centrifugation, and resuspended in 1 ml PBS. Next they were stained with the labeling dye (Alexa405 NHS Ester, Invitrogen, A3000) for 15 min at 37° C., protected from light. Neurons were then washed, spun and resuspended. Number of apoptotic cells was determined using a trypan blue stain and a cellometer. Neurons were resuspended at a density of 50,000 cells per μl.
These apoptotic dead neurons (dN) injected into the cortex and hippocampus of naïve mice induced the recruitment of P2ry12^+ microglia towards the site of injection. P2ry12^+ microglia changed morphology from an M0-homeostatic non-phagocytic (MG-nΦ) phenotype to an amoeboid-phagocytic (MG-dNΦ) phenotype at the vicinity of the injection site. Induction of MGnD microglia was not detected in PBS-injected control brains. […] Trem2 expression has been shown previously, including by our laboratory and others, to have beneficial effect on microglia recruitment towards Aβ-plaques^61-63, associated with restriction of AD^64. Moreover, TREM2 has been recently identified as a receptor for Aβ^65. […] This provides evidence that Xe-gas treatment has a protective immunomodulatory role to induce microglia protective functions to treat AD.

[7] = Xe-gas for one hour immediately after dead neurons injection

## [Xe] [Xenon]
[1]; APP/PS1 mice
  APOE in the plaque region: reduced
[1]; APP/PS1 mice exposed to Xenon vs. normal air for 8 weeks
  APOE phagocytosed by CD68+ cells: significant reduction
[2]
  anti-apoptotic effect: profound anti-apoptotic effect
U-937 cells
  apoptosis in stored U-937 cells: inhibited apoptosis
[3]; APP/PS1 mice, cortex, compared to the control group
  % positive area stained by Clec7a: significantly decreased
[3]; APP/PS1 mice, prefrontal cortex, compared to the control group
  % cortical area of 6E10+ Abeta plaques: significant reduction
[3]; all groups of different plaque sizes
  number of plaques of different sizes: reduction in all groups
[3]; plaque size 0-100 um2
  number of plaques, plaque size 0-100 um2: reduction reached significance
EAE in C57BL6 animals; 5 exposures of 40 minutes twice a week, day 0 to day 15
  clinical signs (EAE score): delay
EAE in C57BL6 animals; flow cytometry
  expression of CD44 (activation marker) in T lymphocytes: tendency to lower expression
  frequency of IFNg in T lymphocytes: higher frequency
EAE in C57BL6 animals; immunohistochemistry, day 17
  frequency of clec7a+ cells in the spinal cord: decrease in the frequency
EAE in C57BL6 animals; spinal cord, flow cytometry
  frequency of microglial cells positive for Clec7a: lower frequency
  frequency of microglial cells positive for Tmem119, PD1 and CD206: tended to have a higher frequency
EAE in C57BL6 animals; spinal cord, immunohistochemistry, day 17
  demyelination: tendency of less demyelination
[4]
  antiapoptotic effect on neurons in AD cell models: direct antiapoptotic effect
[5]
  cytokines induced in MGnD-microglia associated with Aβ-plaques, such as Spp1, Apoe, and Igf1: suppresses
[5]; Xe once a week for 40 minutes for 8 weeks
  Bhlhe40 in microglia: significantly reduced
[5]; Xe once a week for 40 minutes for 8 weeks, approx. 70% Xe and 20% O2
  expression of inflammatory genes including App, Lpl, IIlb, Spp1 and Apoe in microglia: suppressed
[6]; [7]
  Trem2 expression in microglia: significantly induced
  expression of homeostatic genes such as Siglech, Cst3, Fcgrt and Clqb: induces expression
[6]; Xenon vs. normal air in vivo, RNA-Sequencing
  homeostatic and phagocytosis-related genes in MG-dNΦ: induces
